{
  "source": "patent US8604059B2",
  "about": "“Thioxanthene derivatives for the treatment of infectious diseases” (BKG Pharma APS, priority 2009, dated 2013)",
  "key": {"[1]": {"system": "E. faecalis MDR/VRE clinical isolates", "experiment": "FIC index, synergy with antibiotics (Table 4a)", "assay_type": "cell-based, Enterococcus faecalis", "settings": "8 MDR/VRE E. faecalis, mean, compound at ¼ of MIC", "protocol": "The effect of the compounds was tested according to the methods described in WO2005/105145. In brief, cell growth was tested using the MIC susceptibility tests by use of the microdilution broth method in accordance to the NCCLS Guidelines (NCCLS Guidelines, Methods for Dilution Antimicrobial Susceptibility Tests for Bacteria That Grow Aerobically; Approved Standard, Sixth Edition, Volume 23; Number 2).\nThe Fractional Inhibitory Concentration (FIC) index were calculated for each compound as described in WO2005/105145. Synergy was defined for Fractional Inhibitory Concentration (FIC) indices less than 0.5\nEnterococcus faecalis: 8 multidrug resistant in vivo-selected clinical isolates. […] Expressing change in the cell wall precursor target as a major resistance mechanism (VanA gene expression)."}, "Streptococci": {"system": "Streptococci", "experiment": "MIC on multiresistant and susceptible clinical isolates (Table 1b)", "assay_type": "cell-based", "settings": "8 multiresistant and 8 susceptible isolates", "protocol": "(§1) Cell growth was tested using the Minimal Inhibitory Concentration (MIC) susceptibility tests by use of the microdilution broth method in accordance to the NCCLS Guidelines (NCCLS Guidelines, Methods for Dilution Antimicrobial Susceptibility Tests for Bacteria That Grow Aerobically; Approved Standard, Sixth Edition, Volume 23; Number 2). The minimum inhibitory concentration (MIC), is defined as the lowest concentration of drug which inhibits growth of the test organism, in the sense that no visible growth is detected (total inhibition of growth). In example 2, MIC of the compounds used on fungal microorgansims was determined from the IC90 measurements according to NCCLS Guidelines.\n(§2) A log phase culture of bacteria was diluted with fresh pre-warmed Mueller-Hinton medium and adjusted to a defined OD at 600 nm in order to give a final concentration of 1×10^4-5 bacteria/ml medium. The bacterial culture was transferred to microtiter-plates and culture was added to each well. Drug was added to the bacterial culture in the wells as two-fold dilution series of drug in order to give final concentrations ranging from 0.03 to 128 μg/ml. Trays were incubated at 37° C. by shaking in a robot analyzer, PowerWavex, software KC^4′ Kebo. Lab, Copenhagen, for 16 h and optical densities were measured at 600 nm during the incubation time in order to record growth curves. Wells containing bacterial culture without drug were used as controls to ensure correct inoculum size and bacterial growth during the incubation. Cultures were tested in order to detect contaminations. Each experiment was repeated in triplicate. MIC values represent the mean values of two separate triplicate experiments. Intra- and interassay variation was <5%.\n(§3) Clinically relevant human bacterial isolates of Staphylococci, Streptococci, Micrococci and Gram negative species was cultured and assayed as described above for susceptibility towards the compounds listed in table 1b."}, "[2]": {"system": "Staphylococci, Micrococci. Including MRSA", "experiment": "MIC on multiresistant and susceptible clinical isolates (Table 1b)", "assay_type": "cell-based", "settings": "Micrococci incl. MRSA, 8 multiresistant and 8 susceptible isolates", "protocol": "as §1, §2, §3"}, "Gram negative sp.": {"system": "Gram negative sp.", "experiment": "MIC on multiresistant and susceptible clinical isolates (Table 1b)", "assay_type": "cell-based", "settings": "8 multiresistant and 8 susceptible isolates", "protocol": "as §1, §2, §3"}, "S. aureus O11": {"system": "S. aureus O11", "experiment": "Emergence of in vitro-selected single-step ciprofloxacin resistance", "assay_type": "cell-based", "settings": "ciprofloxacin 1 μg per ml (two times the MIC); inhibitor 1 μg/ml; 24 h", "protocol": "The frequency of mutant selection was determined to be 3×10−8 by comparing the number of colonies that grew on plates containing the anti-infective agent with the number of colonies obtained upon plating appropriate dilutions in the absence of anti-infective agents."}},
  "data": [
    {"smiles": "Clc1ccc2c(c1)/C(=C/CCC1CCNCC1)c1ccccc1S2", "note": "[Compound 3]", "values": [
      {"measurement": "FIC index", "setting": "[1]; with Ciprofloxacin", "value": 0.25},
      {"measurement": "FIC index", "setting": "[1]; with Dicloxacillin", "value": 0.25},
      {"measurement": "MIC Mean", "setting": "Streptococci", "value": 0.25, "unit": "µg/mL"},
      {"measurement": "MIC Mean", "setting": "[2]", "value": 0.25, "unit": "µg/mL"},
      {"measurement": "MIC Mean", "setting": "Gram negative sp.", "value": 3, "unit": "µg/mL"},
      {"measurement": "Frequency of emergence of resistance", "setting": "S. aureus O11", "value": "<1 × 10^−10"}
    ]}
  ]
}
